Target: Human immunodeficiency virus type 1 integrase (Human immunodeficiency virus 1) (UniProt Q7ZJM1)
Experiment: Inhibition of HIV1 integrase-mediated viral replication in human MT4 cells after 72 hrs in presence of 10% normal human serum
Assay type: cell-based

Human immunodeficiency virus type 1 integrase (Human immunodeficiency virus 1), sequence (Q7ZJM1 as listed by the source): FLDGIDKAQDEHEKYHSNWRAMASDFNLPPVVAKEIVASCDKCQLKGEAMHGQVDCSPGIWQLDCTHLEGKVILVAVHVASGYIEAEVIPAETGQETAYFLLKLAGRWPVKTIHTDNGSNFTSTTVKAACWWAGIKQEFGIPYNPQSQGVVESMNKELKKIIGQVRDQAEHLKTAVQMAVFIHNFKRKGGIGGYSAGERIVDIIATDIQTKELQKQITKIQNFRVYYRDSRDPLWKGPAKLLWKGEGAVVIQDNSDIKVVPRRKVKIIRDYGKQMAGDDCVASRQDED

Row | IC95 [nM] | Structure (SMILES)
1 | 6 | CC[C@H]1COCC2c3nc(c(O)c(=O)n31)C(=O)NCc1cc(C)c(F)cc1OCC/C=C/C(=O)N2C (stereo partly drawn)
2 | 2260 | CN1CCCc2cc(F)ccc2CNC(=O)c2nc3n(c(=O)c2O)CCCCC3N(C)C(=O)C1=O (stereo not drawn)
3 | 9 | CC[C@H]1COC[C@@H]2c3nc(c(O)c(=O)n31)C(=O)NCc1ccc(F)cc1OCCCCC(=O)N2C
